Source: patent US20100204202A1, “DRUG FOR ALLEVIATING MOTOR COMPLICATIONS OR PSYCHIATRIC SYMPTOMS OF PARKINSON'S DISEASE” (Asubio Pharma Co., Ltd., priority 2007, published 2010)
Like-named read-outs stand apart in the source and are kept apart here.

Tests used:
[1] = biological target: T1, rat serotonin 1A receptors (Rattus norvegicus, UniProt P19327); experiment: Adenylate cyclase inhibition test via rat serotonin 1A receptors (full agonist-partial agonist judgment test), rat hippocampus membranes; type: biochemical; conditions: for inhibition: read-out: maximum inhibitory reaction of adenylate cyclase activity
T1 construct: Each rat was decapitated and the hippocampus was quickly removed; from tissue; host or cells: hippocampus of male Wistar rats
T1 sequence (P19327 1-422): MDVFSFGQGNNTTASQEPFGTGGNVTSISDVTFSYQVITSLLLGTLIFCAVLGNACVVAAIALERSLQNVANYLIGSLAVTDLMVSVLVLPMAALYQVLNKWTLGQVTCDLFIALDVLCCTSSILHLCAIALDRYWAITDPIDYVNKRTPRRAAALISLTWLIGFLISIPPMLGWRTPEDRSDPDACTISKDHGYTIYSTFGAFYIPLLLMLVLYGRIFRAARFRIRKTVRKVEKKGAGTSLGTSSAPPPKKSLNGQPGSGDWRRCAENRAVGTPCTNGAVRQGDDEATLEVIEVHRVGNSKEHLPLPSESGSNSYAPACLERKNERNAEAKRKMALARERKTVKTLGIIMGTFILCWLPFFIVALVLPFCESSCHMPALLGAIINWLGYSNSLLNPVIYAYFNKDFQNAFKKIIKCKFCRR
Procedure: For the test, Wistar male rats supplied by Shimizu Laboratory Supplies were used (9 to 15 weeks old). Each rat was decapitated and the hippocampus was quickly removed. It was homogenized in 10 volumes of buffer (i.e., 25 mM Tris-HCl, 1 mM EGTA, 5 mM EDTA, 5 mM DTT, 300 mM sucrose, 100 KIU/ml aprotinin, pH 7.4). This was then centrifuged at 500×g, 4° C. for 5 minutes, the supernatant was further centrifuged at 39,000×g, 4° C. for 10 minutes, and the residue was used as the rat hippocampus membrane specimen. The rat hippocampus membrane specimen was diluted by a buffer to 20 to 90 μg/mL of protein, then 50 μL of this cell membrane suspension was added to a 200 μL assay buffer containing each test sample (25 mM Tris-HCl, 100 mM NaCl, 2 mM MgCl2. 0.25 mM ATP, 5 mM phosphocreatine, 10 μg/mL creatine phosphokinase, 0.2 mM IBMX, 10 μM GTP, 10 μM forskolin, pH 7.4) and allowed to react at 30° C. for 5 minutes. 0.2N HCl was added in 250 μL to stop the reaction, then the cAMP produced was assayed by the radioimmunoassay method. […] Note that the adenylate cyclase activity was measured using as an indicator the amount of cAMP produced by the same enzyme. The rate of inhibition by the serotonin 1A receptor agonist was found using the amount of production due to forskolin (10 μM) stimulus as 100%.

[2] = tested on: Parkinson's disease model rats; experiment: Hyperkinesia of the forelimbs and shortening of rotational behavior duration induced by repeated doses of levodopa; type: in vivo, rat
From the text: In rats with unilateral nigrostriatal dopamine nerve destruction generally used as Parkinson's disease animal models, it became clear that by administering levodopa by repeated dosage for about 5 weeks, behavior resembling the symptoms of advanced stage Parkinson's disease appeared. That is, in Parkinson's disease model rats prepared in the same way as in Example 4, along with repeated doses of levodopa, abnormal behavior such as involuntary extending of the forelimb or opening or closing of the hand, up-and-down movement of the wrist, choreiform tremor in the forelimb on the opposite side of microinjection of 6-hydroxydopamine was observed (FIG. 3). This abnormal behavior is reported by Steece-Collier et al. (Steece-Collier K. et al., “Embryonic mesencephalic grafts increase levodopa-induced forelimb hyperkinesia in parkinsonian rats”, Movement Disorders, 2003, 18, p. 1442-1454) as hyperkinesia of the forelimbs.
This appears dependent on the period of repeated doses of levodopa and reportedly is similar to clinical dyskinesia. […] Bibbiani et al. (Bibbiani F. et al., “Serotonin 5-HT1A agonist improves motor complications in rodent and primate parkinsonian models”, Neurology, 2001, 57, p. 1829-1834) report that in Parkinson's disease model rats, along with repeated doses of levodopa, a shortening of the rotational behavior duration is observed and that this phenomenon resembles the wearing off phenomenon in clinical studies.
That is, they treated each group by repeated doses of levodopa and repeated dosage of the tested substance for about 2 weeks (Monday to Friday) and observed the hyperkinesia of the forelimbs and rotational behavior after levodopa administration. Note that the SUN N4057 was subcutaneously administered right before levodopa administration, the sarizotan was orally administered about 20 minutes before levodopa dosage in accordance with above-mentioned known reports (Bibbiani F. et al., Neurology, 2001, 57, p. 1829-1834), and the Example Compound 4 of Japanese Patent Publication No. 2005-298402A was subcutaneously administered about 30 minutes before levodopa dosage in accordance with the above-mentioned Japanese Patent Publication No. 2005-298402A. Further, for the solvent, for SUN N4057 and Example Compound 4 of Japanese Patent Publication No. 2005-298402A, physiological saline was used.
In the same way as Example 4, Parkinson's disease model rats were prepared and the rats treated by repeated doses of levodopa (twice a day, Monday to Friday) for 5 weeks and measured for hyperkinesia of the forelimbs and rotational behavior. Further, based on the results of the hyperkinesia of the forelimbs and rotational behavior duration, the rats were assigned to the groups so as to prevent any significant difference between them, then the effects of the tested substances on these behaviors resembling symptoms of advanced stage Parkinson's disease patients were compared and studied. […] Note that compound Ib (0.3, 1 mg/kg) and compound Ic (0.3, 1 mg/kg) were both intraperitoneally administered right before levodopa administration. For the solvent, physiological saline was used.

rats [3] = experiment: Amount of locomotor activity; type: in vivo, rat; conditions: 10 mg/kg i.p.; minutes 0-5
From the text: For the test, Crl: CD(SD) male rats supplied by Charles River Japan were used (6 weeks old at start of test). For the forced swimming test, the method of the improved type reported by Lucki et al. (Lucki I., “The forced swimming test as a model for core and component behavioral effects of antidepressant drugs”, Behavioural Pharmacology, 1997, 8, p. 523-532; Cryan J. F. et al., “Assessing antidepressant activity in rodents: recent developments and future needs”, TRENDS in Pharmacological Sciences, 2002, 23, p. 238-245) was used. On day 1, each rat was placed in a cylinder filled with water (height 45 cm×diameter 30 cm, water depth 30 cm, water temperature 23° C., water depth set to depth by which back legs and tail of rat will not touch the bottom). The rat was taken out after 15 minutes. At this time, the immobility period (seconds) of minutes 10-15 (5 minutes) was recorded. Based on the results, the rats were assigned to five groups so that there would be no difference among the groups. On day 2, each rat was placed in a cylinder filled with water the same as day 1 and the immobility period (seconds), swimming behavior period (seconds), and climbing behavior period (seconds) of minutes 0-5 (5 minutes) were measured. […]

rats [4] = experiment: Forced swimming method (anti-depressive action); type: in vivo, rat; conditions: 10 mg/kg i.p.
From the text: For the test, Crl: CD(SD) male rats supplied by Charles River Japan were used (6 weeks old at start of test). For the forced swimming test, the method of the improved type reported by Lucki et al. (Lucki I., “The forced swimming test as a model for core and component behavioral effects of antidepressant drugs”, Behavioural Pharmacology, 1997, 8, p. 523-532; Cryan J. F. et al., “Assessing antidepressant activity in rodents: recent developments and future needs”, TRENDS in Pharmacological Sciences, 2002, 23, p. 238-245) was used. On day 1, each rat was placed in a cylinder filled with water (height 45 cm×diameter 30 cm, water depth 30 cm, water temperature 23° C., water depth set to depth by which back legs and tail of rat will not touch the bottom). The rat was taken out after 15 minutes. At this time, the immobility period (seconds) of minutes 10-15 (5 minutes) was recorded. Based on the results, the rats were assigned to five groups so that there would be no difference among the groups. On day 2, each rat was placed in a cylinder filled with water the same as day 1 and the immobility period (seconds), swimming behavior period (seconds), and climbing behavior period (seconds) of minutes 0-5 (5 minutes) were measured. Note that the immobility period was defined as the minimum extent of movement for the rat to hold its head above the water, the swimming behavior as the swimming behavior circling around the inside of the cylinder in the horizontal direction, and the climbing behavior as the climbing behavior moving the forelimbs in the vertical direction along the cylinder walls to try to climb them. The tested substance was intraperitoneally administered 15 minutes after the end of swimming on day 1, and 4 hours and 30 minutes before swimming on day 2. Further, for the amount of locomotor activity, a measuring system (shape 48.8×48.8×30 cm, vertical 8 fractions, horizontal 8 fractions, for total of 64 fractions, Biomedica) set in a blacked out soundproof box was used to record the amount of locomotor activity of the rats at minutes 0-15 (15 minutes). Note that the dosages and timings of administration of the tested substances were set in the same way as the forced swimming test and the substance were intraperitoneally administered 24 hours, 4 hours, and 30 minutes before measurement of the amount of locomotor activity.

With `CCCN(CCC)[C@@H]1CCc2cccc(O)c2C1` [8-OH-DPAT, (R)-(+)-8-hydroxy-2-(di-n-propylamino)tetraline] the inhibition [1] was 32%.

With `Cl.O=C1c2ccccc2OC=C(Cl)N1CCCCN1CC=C(c2ncccn2)CC1` [compound Ib, 3-chloro-4,5-dihydro-4-{4-[4-(2-pyrimidinyl)-1,2,3,6-tetrahydropyridin-1-yl]butyl}-1,4-benzoxazepin-5-one hydrochloride] the rotational behavior duration ([2]; 0.3, 1 mg/kg i.p. repeated 2 weeks) was “tended to be prolonged” and the “hyperkinesia of the forelimbs” value ([2]; 0.3, 1 mg/kg i.p. repeated 2 weeks, 30 minutes and 1 hour after levodopa dosage) was “significantly inhibited”.

In the case of `Cc1ccnc(C2=CCN(CCCCN3C(=O)c4ccccc4OC=C3Cl)CC2)n1.O=C(O)/C=C/C(=O)O` [compound Ic, 3-chloro-4,5-dihydro-4-(4-{4-[(4-methyl)-2-pyrimidinyl]-1,2,3,6-tetrahydropyridin-1-yl}butyl)-1,4-benzoxazepin-5-one fumarate], the “hyperkinesia of the forelimbs” value ([2]; 0.3 mg/kg i.p. repeated 2 weeks, 30 minutes after levodopa dosage) is reported as “significantly inhibited”, the rotational behavior duration ([2]; 1.0 mg/kg i.p. repeated 2 weeks) is reported as “significantly prolonged” and the “hyperkinesia of the forelimbs” value ([2]; 1.0 mg/kg i.p. repeated 2 weeks, 30 minutes and 1 hour after levodopa dosage) is reported as “significantly inhibited”.

In the case of `CNCCCN1c2ccccc2CCc2ccccc21` [desipramine], the “amount of locomotor activity” value (rats [3]) is reported as “decline”, the climbing behavior period (rats [4]) is reported as “significant increase” and the immobility period (rats [4]; minutes 0-5 on day 2) is reported as “significant shortening of the immobility period”.

For `O=C1c2ccccc2S(=O)(=O)N1CCCCN1CCN(c2ncccn2)CC1` [ipsapirone], the IC50 ([1]; forskolin (10 μM) stimulated, rat hippocampus membranes, read-out: IC50 of adenylate cyclase inhibition (for the maximum reaction)) was 39 nM and the inhibition ([1]; forskolin (10 μM) stimulus = 100%, rat hippocampus membranes) was 19%.
